According to paper PMC7515829, “HKDC1 C-terminal based peptides inhibit extranodal natural killer/T-cell lymphoma by modulation of mitochondrial function and EBV suppression” (Leukemia, 2020):

Tests used:
HKDC1/VDAC1 [1] = molecular target: T1, HKDC1/VDAC1 (Homo sapiens, UniProt P21796); test: IP/WB association of HKDC1 with VDAC1 in SNK6 cells; assay type: cell-based; set-up: endogenous in cells; host or cells: SNK6; details: 0.5 µM peptide, 6 h, vs CTL, n = 5 (Fig. 4c, d)
Method: (§1) Immunoprecipitation (IP) and Western Blotting (WB). Cell lysates were pre-cleared by pre-immune IgG plus Protein A agarose beads for 2 hours, and the supernatants were immunoprecipitated by the indicated antibodies and a 50% slurry of Protein A Agarose beads overnight at 4 °C (9). After washing with buffer containing 50 mM Tris, pH 7.5, 150 mM NaCl, 1% NP-40, and 0.5% deoxycholate with protease inhibitors, proteins were released, separated on 10% SDS-PAGE gels, blotted by primary antibodies, and then simultaneously incubated with the differentially labeled species-specific secondary antibodies, anti-RABBIT IRDye™ 800CW (green) and anti-MOUSE (or goat) ALEXA680 (red). Membranes were scanned and quantitated by the ODYSSEY Infrared Imaging System (LI-COR, NE) (10).

SNK6 xenograft = SNK6 xenograft tumor volume; assay type: in vivo, mouse; details: nude mice, n = 5; for tumor volumes on day 36: intratumoral 50 µM peptide every 2 days from day ~18, day 36, vs CTL; for tumor volumes on day 48: intratumoral 50 µM peptide every 2 days from day ~18, day 48, vs CTL
Method: To measure malignant SNK6 xenograft growth, 100 µl of 1 × 10^5 SNK6 cells in PBS were mixed with 100 µl growth factor-reduced basement membrane matrix (Matrigel™, BD Biosciences) resulting in 200 µl of solution that was injected subcutaneously along the mouse flank at each intended tumor site. Tumor size was measured using a digital caliper and volume was calculated, and mice were randomly divided into four groups (n = 9 per group) when the tumor volume reached 50–100 mm^3 on day ~18 after tumor inoculation and given treatment as follows: Group 1 (control (CTL)) was intratumorally injected with HBSS buffer (5.33 mM KCl, 0.44 mM KH2PO4, 138 mM NaCl, 4 mM NaHCO3, 0.3 mM Na2HPO4, and 5.6 mM glucose, pH 7.3) containing 0.05% DMSO; Group 2 (Tf-D-HKN15) received HBSS buffer containing 0.05% DMSO with 50 µM Tf-D-HKN15 peptides; Group 3 (Tf-D-HKC15) received HBSS buffer containing 0.05% DMSO with 50 µM Tf-D-HKC15 peptides; Group 4 (Tf-D-HKC8) received HBSS buffer containing 0.05% DMSO with 50 µM Tf-D-HKC8 peptides. The xenografts were injected (two points, 20 µl per tumor) every 2 days. Beginning on the day of inoculation, mouse weight and tumor volume were monitored every 2 days. Mice were monitored for changes in body weight and sacrificed when values fell below 20% of their initial weight; the survival curve was calculated and the final tumor tissues were isolated for biomedical analysis.
To measure the malignant SNK6 xenograft growth, the 100µl of 1x10^5 SNK6 cells in PBS were mixed with 100µl growth factor-reduced basement membrane matrix (Matrigel™, BD Biosciences) resulting in 200µl of solution that was injected subcutaneously along the mouse flank at each intended tumor site. Tumor size was measured using a digital caliper and volume was calculated, and mice were randomly divided into 4 groups (n=9 per group) when the tumor volume reached 50-100 mm^3 on day ~18 after tumor inoculation: Group 1 (CTL) was intratumorally injected with HBSS buffer (5.33 mM KCl, 0.44 mM KH2PO4, 138 mM NaCl, 4 mM NaHCO3, 0.3 mM Na2HPO4, and 5.6 mM glucose, pH 7.3) containing 0.05% DMSO; Group 2 (Tf-D-HKN15) received HBSS buffer containing 0.05% DMSO with 50 µM Tf-D-HKN15 peptides; Group 3 (Tf-D-HKC15) received HBSS buffer containing 0.05% DMSO with 50 µM Tf-D-HKC15 peptides; Group 4 (Tf-D-HKC8) received HBSS buffer containing 0.05% DMSO with 50 µM Tf-D-HKC8 peptides. The xenografts were injected (two points, 20 µL per tumor) every two days. Beginning on the day of inoculation, mouse weight and tumor volume were monitored every 2 days. Mice were monitored for changes in body weight and sacrificed when values fell below 20% of their initial weight, the survival curve was calculated and the final tumor tissues were isolated for biomedical analysis.

HKDC1/VDAC1 [2] = molecular target: T1, HKDC1/VDAC1; test: IP/WB association of HKDC1 with VDAC1 in HMECs; assay type: cell-based; set-up: endogenous in cells; details: 0.5 µM peptide, 6 h, compared with CTL group, n = 5 (Fig S3)
Method: as §1
(§2) Figure S3. Peptide Tf-D-HKC8 dissociates HKDC1 from VDAC1 in cancer cells, but little effect on normal cells. Different cells, including HMECS, HANK1 and SW480, were treated by either control (CTL) or Tf-D-HKC8 peptide (0.5µM) for 6 hours, and the cells were used for IP/WB analysis. (a) Representative western blotting bands for IP/WB. (b) Protein quantitation for IP/WB for (a), n=5. *, P<0.05, vs CTL group. Results were expressed as mean ± SEM.

SNK6 cells = test: ROS formation (CM-H2DCFDA); assay type: cell-based, human; details: 0.5 µM peptide, 6 h, compared with CTL group, n = 5 (Fig. 3a)
Method: Measurement of ROS generation. Treated cells were seeded in a 24-well plate and incubated with 10μM CM-H2DCFDA (Invitrogen) for 45 min at 37°C, and then the intracellular formation of reactive oxygen species (ROS) was measured at excitation/emission wavelengths of 485/530nm using a FLx800 microplate fluorescence reader (Bio-Tek). The data was normalized as arbitrary units (8, 11).

HKDC1/VDAC1 [3] = molecular target: T1, HKDC1/VDAC1; test: IP/WB association of HKDC1 with VDAC1 in SW480 cells; assay type: cell-based; set-up: endogenous in cells; details: 0.5 µM peptide, 6 h, compared with CTL group, n = 5 (Fig S3)
Method: as §1, §2

HKDC1/VDAC1 [4] = molecular target: T1, HKDC1/VDAC1; test: IP/WB association of HKDC1 with VDAC1 in HANK1 cells; assay type: cell-based; set-up: endogenous in cells; details: 0.5 µM peptide, 6 h, compared with CTL group, n = 5 (Fig S3)
Method: as §1, §2

T1 sequence (P21796 2-283 limits assumed): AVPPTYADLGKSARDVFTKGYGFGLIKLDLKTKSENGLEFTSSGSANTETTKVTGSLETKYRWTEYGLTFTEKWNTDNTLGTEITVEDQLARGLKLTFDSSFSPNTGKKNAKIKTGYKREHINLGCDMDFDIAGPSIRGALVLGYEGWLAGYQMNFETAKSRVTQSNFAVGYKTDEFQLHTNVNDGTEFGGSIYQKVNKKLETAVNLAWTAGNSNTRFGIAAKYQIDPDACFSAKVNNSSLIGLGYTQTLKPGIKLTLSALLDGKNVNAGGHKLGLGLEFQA

| Substance | association of HKDC1 with VDAC1 (HKDC1/VDAC1 [1]) [%] | tumor volumes on day 36 (SNK6 xenograft) [%] | tumor volumes on day 48 (SNK6 xenograft) [%] | association of HKDC1 with VDAC1 in HMECs (HKDC1/VDAC1 [2]) | ROS formation (SNK6 cells) [%] | association of HKDC1 with VDAC1 in SW480 cells (HKDC1/VDAC1 [3]) [%] | association of HKDC1 with VDAC1 in HANK1 cells (HKDC1/VDAC1 [4]) [%] |
| --- | --- | --- | --- | --- | --- | --- | --- |
| HAIYPRH-LQQAQKEN [Tf-D-HKC8] | 24 | 36 | 32 | little effect | 229 | 67 | 34 |
| HAIYPRH-ITAVAKRLQQAQKEN [Tf-D-HKC15] | 68 | 63 | 70 | – | 165 | – | – |
